The test system of one data set is SD rats. The experiment in a line: Toxicity test on SD rats by repeated intravenous administrations for 7 days. The data set is classed as in vivo, rat. The settings on record: 1 mg/kg intravenously qd. The method, then:
This experiment was performed to evaluate the toxicity of compound 9 and AZD4320 to SD rats by repeated intravenous administrations for 7 days.
30 SD rats, weighing about 180-200 g and aged 6-7 weeks, half male and half female, purchased from Zhejiang Vital River Laboratory Animal Technology Co., Ltd., SPF grade. Animal certification number: 200917Aazz0619000298 and 20200917Aazz0619000104. Production license number: SCXK (Zhejiang) 2019-0001.
Housing conditions: SPF grade, animals were housed in plastic and transparent rat cages, 2-3 per cage. The room temperature was 20-26° C. and the relative humidity was 40%-70%. The illumination was controlled in a 12/12 light/dark cycle. The granulated feed for mice was freely taken in an unlimited amount.
The rats were randomly divided into the following 3 groups: a vehicle control group, a compound 9-1 mg/kg group and a compound AZD4320-1 mg/kg group, with 6 rats in each group, half male and half female.
Dosage of the test sample for the 7-day toxicity test in rats: 1 mg/kg (qd), for 7 consecutive days. Administration route: intravenously, dosing volume: 10 mL/kg, dosing frequency and dosing period: daily in the morning for 7 days.
Vehicle: 1.5% DMA+98.5% (10% HS-15), wherein DMA is N,N-dimethylacetamide (Shanghai Titan Scientific Co., Ltd., Cat #01013630); and HS-15 is polyethylene glycol stearate 15 (Solutol HS15) (Shanghai Xietai Chemical Co., Ltd., Cat #50253404).
Hitachi 7100 automatic biochemical analyzer
Siemens advia 2120i automatic blood cell analyzer
Sysmex ca1500 automatic coagulation analyzer
The detection results were input and statistically processed by Excel of the computer.
Clinical symptoms, food intake and general visual observation results of dissection were not statistically calculated, and indexes such as body weight, organ weight and clinical examination were counted by using T-test.
SD rats were intravenously administered with 1 mg/kg compound 9 or 1 mg/kg AZD4320 at 5 mL/kg for 7 repeated days.

The nature of data set [1]: Pharmacokinetic evaluation in mice (iv, LC/MS/MS plasma). The data set is classed as in vivo. Particulars: C57 mice, female, intravenous administration, dose 1 mg/kg (table). How it is done: The drug concentration in the plasma of the test animals (mice) at different time points after intravenous (iv) administration of compound 10 and AZD4320 was determined by an LC/MS/MS method. The pharmacokinetic behavior of the compounds of the present disclosure in mice was studied and their pharmacokinetic profile was valuated.
18 C57 mice, female, randomly divided into 2 groups, purchased from Zhejiang Vital River Laboratory Animal Technology Co., Ltd, animal production license number: SCXK (Shanghai) 2017-0005.
A certain amount of compound 10 was weighed, dissolved by adding 5% by volume of DMSO and 5% Tween 80 (Shanghai Titan Scientific Co., Ltd.), and then prepared into a 0.1 mg/mL clear solution by adding 90% normal saline. Compound AZD4320 was formulated as with compound 10. […]
The mice were intravenously administered with compound 10, and 0.1 mL of blood was collected before the administration and 5 min, 0.25 h, 0.5 h, 1.0 h, 2.0 h, 4.0 h, 8.0 h, 11.0 h and 24.0 h after the administration, put into an EDTA-K2 anticoagulation tube, centrifuged at 10,000 rpm for 1 min (4° C.). Plasma was separated within 1 hour, and stored at −20° C. for testing. The process from blood collection to centrifugation was performed under an ice bath.
The mice were intravenously administered with compound AZD4320, and 0.1 mL of blood was collected before the administration and 5 min, 0.25 h, 0.5 h, 1.0 h, 2.0 h, 4.0 h, 8.0 h, 11.0 h and 24.0 h after the administration, put into an EDTA-K2 anticoagulation tube, centrifuged at 10,000 rpm for 1 min (4° C.). Plasma was separated within 1 hour, and stored at −20° C. for testing. The process from blood collection to centrifugation was performed under an ice bath.
The content of the test compounds at different concentrations in plasma of mice after the administration was determined: 10 μL of plasma of mice at each time point after the administration was mixed with 200 μL of methanol (containing an internal standard solution camptothecin (100 ng/mL)); the mixture was vortexed for 1 min, and centrifuged for 10 min (18,000 r/min), and 3 μL of supernatant was taken for LC/MS/MS analysis.

In another data set the test system is RS4;11 cells. Briefly: Inhibition of proliferation of RS4;11 cells (CellTiter-Glo). Type of data set: cell-based. Particulars: Homo sapiens, 72 h, 3 days, read-out: Inhibitory activity IC50 (nM) for the proliferation of RS4;11 cells. How it is done: (§1) In vitro inhibitory activity for the proliferation of RS4;11 cells and NCI-H146 cells was tested by the following method.
(§2) Reagents used in this experiment: RPMI-1640 medium (HyCLone, Cat #SH30243018); fetal bovine serum (Gibco, Cat #10099-141); pancreatin (Gibco, Cat #25200-072); Cell Titer-Glo (Promega, Cat #G7571).
(§3) Materials used: RS4;11 cells (Nanjing Kebai Biotechnology Co., Ltd, Cat #CBP60641); and NCI-H146 cells (ATCC, Cat #HTB-173).
(§4) The in vitro cell proliferation assay described below can determine the inhibitory activity of the test compounds for the proliferation of RS4;11 cells and NCI-H146 cells.
(§5) RS4;11 cells (or NCI-H146 cells) were cultured in an RPMI-1640 culture medium containing 10% FBS, and were passaged for 2-3 times a week in a passage ratio of 1:3 or 1:5. During passage, the cells were transferred to a centrifuge tube, and centrifuged at 1200 rpm for 3 min. The supernatant was discarded, and fresh culture medium was added to resuspend the cells. 90 μL of cell suspension was added to a 96-well cell culture plate, wherein RS4;11 cells and NCI-H146 cells were added at a density of 2.22×10^5 cells/mL. Only 100 μL of complete medium (RPMI-1640 medium containing 10% FBS) was added to the periphery of the 96-well plate. The plate was incubated in an incubator for 24 h (37° C., 5% CO2).
(§6) The test sample was diluted to a proper concentration gradient with dimethyl sulfoxide as required for the experiment. 5 μL of the solution of the test compound prepared in a gradient concentration was added to 95 μL of fresh culture medium and mixed uniformly, and then 10 μL of the culture medium containing the above compound was added to a cell culture plate. The cell culture plate was incubated in an incubator for 3 days (37° C., 5% CO2). 50 μL of CellTiter-Glo reagent was added into each well of the 96-well cell culture plate. The plate was let stand for 5-10 min away from the light at room temperature. The chemiluminescence signals were read by a microplate reader (BMG Labtech, model: PHERAstar FS) and the data were processed by GraphPad software.
On the technique in general: In ATP-based viability assays light output follows the ATP content of the culture.

The next data set addresses T1, BCL-xL (Homo sapiens, UniProt Q07817).
T1 construct: purchased R&D 894-BX-050
Briefly: Binding activity for BCL-xL (HTRF, biotin-labeled BIM). Particulars: His-tagged BCL-xL. The method, then:
In vitro BCL-xL-binding activity was tested by the following method.
Reagents used in this experiment: His-tagged BCL-xL protein (R&D, Cat #894-BX-050); biotin-labeled BIM protein (R&D, Cat #3526/1); binding buffer (cisbio, Cat #62DLBDDF); assay buffer (cisbio, Cat #62DB1FDG); MAb anti-6His-Eu cryptate (cisbio, Cat #61HI2KLA); and affinity streptomycin linked XL665 (cisbio, Cat #611SAXLA).
The in vitro binding assay described below can determine the binding activity of test compounds for BCL-xL.
The test compounds were dissolved in dimethyl sulfoxide and diluted to gradient concentrations as required for the experiment, and the compounds at various concentrations formulated in dimethyl sulfoxide were subjected to a 100-fold dilution with a binding buffer. BCL-xL was diluted to the corresponding concentration with a binding buffer, and added to a white 384-well plate at 4 μL/well. Then the diluted test compound was added to the white 384-well plate at 2 μL/well. The plate was incubated at 25° C. for 1 h after the mixture was uniformly mixed. Biotin-labeled BIM protein was diluted to the corresponding concentration with a binding buffer, and added to a white 384-well plate at 4 μL/well. The plate was incubated at 25° C. for 2 h after the mixture was uniformly mixed. The MAb anti-6His-Eu cryptate and the affinity streptomycin linked XL665 were each diluted to the corresponding concentration with an assay buffer, and added to a white 384-well plate at 5 μL/well. The plate was incubated at 25° C. for 2-4 h after the mixture was uniformly mixed. The signal values were read with the HTRF program in a microplate reader (BMG Labtech, model: PHERAstar FS).
On the technique in general: In TR-FRET formats the signal depends on donor and acceptor labels being close together.

The target in another data set is T2, BCL-2 (Homo sapiens, UniProt P10415).
T2 construct: purchased R&D systems 827-BC-050
The experiment in a line: Binding activity for BCL-2 (HTRF, biotin-labeled BIM). The settings on record: His-tagged BCL-2, biotin-labeled BIM. The method, then:
In vitro BCL-2-binding activity was tested by the following method.
Reagents used in this experiment: His-tagged BCL-2 protein (R&D systems, Cat #827-BC-050); biotin-labeled BIM protein (R&D, Cat #3526/1); binding buffer (cisbio, Cat #62DLBDDF); assay buffer (cisbio, Cat #62DB1FDG); MAb anti-6His-Eu cryptate (cisbio, Cat #61HI2KLA); and affinity streptomycin linked XL665 (cisbio, Cat #611SAXLA).
The in vitro binding assay described below can determine the binding activity of test compounds for BCL-2.
The test compounds were dissolved in dimethyl sulfoxide and diluted to gradient concentrations as required for the experiment, and the compounds at various concentrations formulated in dimethyl sulfoxide were subjected to a 100-fold dilution with a binding buffer. BCL-2 was diluted to the corresponding concentration with a binding buffer solution, and added to a white 384-well plate at 4 μL/well. Then the diluted test compound was added into the white 384-well plate at 2 μL/well. The plate was incubated at 25° C. for 1 h after the mixture was uniformly mixed. Biotin-labeled BIM protein was diluted to the corresponding concentration with a binding buffer, and added to a white 384-well plate at 4 μL/well. The plate was incubated at 25° C. for 2 h after the mixture was uniformly mixed. The MAb anti-6His-Eu cryptate and the affinity streptomycin linked XL665 were each diluted to the corresponding concentration with an assay buffer, and added to a white 384-well plate at 5 μL/well. The plate was incubated at 25° C. for 2-4 h after the mixture was uniformly mixed. The signal values were read with the HTRF program in a microplate reader (BMG Labtech, model: PHERAstar FS).

A further data set concerns NCI-H146 cells. The experiment in a line: Inhibition of proliferation of NCI-H146 cells (CellTiter-Glo). The settings on record: Homo sapiens, 72 h, 3 days, read-out: Inhibitory activity IC50 (nM) for the proliferation of NCI-H146 cells. Type of data set: cell-based. The method, then:
as §1, §2, §3, §4, §5, §6

Marks after values point to notes of the source that are not given here.

T1 sequence (Q07817 whole entry): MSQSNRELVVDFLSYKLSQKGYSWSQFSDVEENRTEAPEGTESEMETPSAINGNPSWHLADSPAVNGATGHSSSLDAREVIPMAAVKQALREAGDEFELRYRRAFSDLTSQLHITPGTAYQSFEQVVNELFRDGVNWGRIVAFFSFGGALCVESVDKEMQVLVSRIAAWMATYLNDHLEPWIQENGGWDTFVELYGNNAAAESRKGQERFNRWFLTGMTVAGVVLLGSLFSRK
T2 sequence (P10415 whole entry): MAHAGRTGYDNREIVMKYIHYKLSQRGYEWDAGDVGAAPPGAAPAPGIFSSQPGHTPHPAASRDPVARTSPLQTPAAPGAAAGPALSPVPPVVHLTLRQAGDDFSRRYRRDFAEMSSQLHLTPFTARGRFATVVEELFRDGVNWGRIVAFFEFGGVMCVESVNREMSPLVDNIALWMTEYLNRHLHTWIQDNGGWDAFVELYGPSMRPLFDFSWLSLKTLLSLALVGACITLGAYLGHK

Broadly, the half-life is the time needed for the level to fall by half in the phase considered. On to `CN(CCO)CC[C@H](CSc1ccccc1)Nc1ccc(S(=O)(=O)NC(=O)c2ccc(N3CCC([C@@H](O)c4ccccc4-c4ccc(Cl)cc4)CC3)cc2)cc1S(=O)(=O)C(F)(F)F` [AZD4320, reference compound], for which the “PLT (10^9/L)” value with SD rats is given as 807.50** 10^9/L. Also, the “Effect on platelets (in words)” value in the data set on SD rats (vs vehicle control) was “more significantly reduced”. Besides, in data set [1], the “Clearance CLz/F” value was determined as 72.7 mL/min/kg. Also, the AUC(0-t) in data set [1] (mouse, plasma, read-out: Area under curve AUC0-t) is 206 ng·h/mL. Further, the half-life in data set [1] (mouse, plasma, read-out: Half-life T½ (converted)) was 186 min. Besides, the MRT inf in data set [1] (mouse, plasma, read-out: Mean retention time MRT 0-∞) was determined as 2.4 h. For the same compound, the concentration at 5 min in data set [1] (mouse, plasma, read-out: Plasma Concentration C5 min) came out at 436 ng/mL.
For orientation: Ki means the equilibrium dissociation constant of an inhibitor or competing ligand from its target. Consider `O=C(NS(=O)(=O)c1ccc(N[C@@H](CSc2ccccc2)C[C@@H]2CCCN2CCO)c(S(=O)(=O)C(F)(F)F)c1)c1ccc(N2CCC([C@@H](O)c3ccccc3-c3ccc(C(F)(F)F)cc3)CC2)cc1` [Example 2-13, 4-(4-((R)-hydroxy(4′-(trifluoromethyl)-[1,1′-biphenyl]-2-yl)methyl)piperidin-1-yl)-N-((4-(((R)-1-((S)-1-(2-hydroxyethyl)pyrrolidin-2-yl)-3-(phenylthio)propan-2-yl)amino)-3-((trifluoromethyl)sulfonyl)phenyl)sulfonyl)benzamide], for which the IC50 in the data set with RS4;11 cells is 7 nM; with NCI-H146 cells, 35 nM. In addition, the Ki on BCL-xL worked out at 0.3 nM; on BCL-2, 0.04 nM.

Values taken from patent publication US20230250077A1, “SULFONYLBENZAMIDE DERIVATIVE AND CONJUGATE THEREOF, PREPARATION METHOD THEREFOR AND USE THEREOF” (Jiangsu Hengrui Pharmaceuticals Co., Ltd., priority 2020, published 2023).
